Data: PubChem BioAssay (NCI)
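Five concentrations, 48 hours, 96-well plates. TGI marks complete inhibition of growth.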

How the values were obtained:
Assay in all cases: NCI anticancer screen, dose series, 48 h
A549 NSCLC = tested on: A549 NSCLC
MDA-N = tested on: MDA-N
MOLT-4 leukemia = tested on: MOLT-4 leukemia
MDA-MB-435 = tested on: MDA-MB-435
NCI-H226 lung = tested on: NCI-H226 lung
T-47D breast = tested on: T-47D breast
U251 CNS = tested on: U251 CNS
HOP-62 NSCLC = tested on: HOP-62 NSCLC
HS 578T breast = tested on: HS 578T breast
RXF 393 renal = tested on: RXF 393 renal
SW-620 colon = tested on: SW-620 colon
A498 renal = tested on: A498 renal
MDA-MB-231 breast = tested on: MDA-MB-231 breast
IGROV1 ovarian = tested on: IGROV1 ovarian
NCI-H23 lung = tested on: NCI-H23 lung
OVCAR-8 ovarian = tested on: OVCAR-8 ovarian
HL-60(TB) leukemia = tested on: HL-60(TB) leukemia
SF-295 CNS = tested on: SF-295 CNS
SR leukemia = tested on: SR leukemia
LOX IMVI melanoma = tested on: LOX IMVI melanoma

## CC(C)(C)[Si](C)(C)OCCCCC1CC2(S(=O)(=O)C3=CC=C=C=C3)ON1CC2S(=O)(=O)c1ccccc1 (stereo unspecified)
A549 NSCLC
  TGI: > 100 µM
MDA-N
  TGI: > 100 µM
MOLT-4 leukemia
  TGI: > 100 µM
MDA-MB-435
  TGI: > 100 µM
NCI-H226 lung
  TGI: > 100 µM
T-47D breast
  TGI: > 100 µM
U251 CNS
  TGI: > 100 µM
HOP-62 NSCLC
  TGI: > 100 µM
HS 578T breast
  TGI: > 100 µM
RXF 393 renal
  TGI: > 100 µM
SW-620 colon
  TGI: > 100 µM
A498 renal
  TGI: > 100 µM
MDA-MB-231 breast
  TGI: > 100 µM
IGROV1 ovarian
  TGI: > 100 µM
NCI-H23 lung
  TGI: > 100 µM
OVCAR-8 ovarian
  TGI: > 100 µM

## CN(/N=C/c1cccs1)c1ccc(Cl)cc1[N+](=O)[O-]
A549 NSCLC
  TGI: > 100 µM
HL-60(TB) leukemia
  TGI: 54.1 µM
MDA-N
  TGI: > 100 µM
MOLT-4 leukemia
  TGI: > 100 µM
MDA-MB-435
  TGI: > 100 µM
NCI-H226 lung
  TGI: 97.3 µM
T-47D breast
  TGI: > 100 µM
U251 CNS
  TGI: 59.5 µM
HOP-62 NSCLC
  TGI: > 100 µM
HS 578T breast
  TGI: 76.2 µM
RXF 393 renal
  TGI: > 100 µM
SW-620 colon
  TGI: > 100 µM
SF-295 CNS
  TGI: > 100 µM
MDA-MB-231 breast
  TGI: > 100 µM
IGROV1 ovarian
  TGI: > 100 µM
SR leukemia
  TGI: > 100 µM
NCI-H23 lung
  TGI: > 100 µM
OVCAR-8 ovarian
  TGI: > 100 µM

## Nc1ncnc2c1ncn2C1C=CC(CP(=O)(O)O)C1 (stereo unspecified)
A549 NSCLC
  TGI: > 100 µM
MDA-N
  TGI: > 100 µM
MOLT-4 leukemia
  TGI: > 100 µM
MDA-MB-435
  TGI: > 100 µM
NCI-H226 lung
  TGI: > 100 µM
T-47D breast
  TGI: > 100 µM
U251 CNS
  TGI: > 100 µM
HOP-62 NSCLC
  TGI: > 100 µM
HS 578T breast
  TGI: > 100 µM
LOX IMVI melanoma
  TGI: > 100 µM
RXF 393 renal
  TGI: > 100 µM
SW-620 colon
  TGI: > 100 µM
SF-295 CNS
  TGI: > 100 µM
MDA-MB-231 breast
  TGI: > 100 µM
IGROV1 ovarian
  TGI: > 100 µM
SR leukemia
  TGI: > 100 µM
NCI-H23 lung
  TGI: > 100 µM
OVCAR-8 ovarian
  TGI: > 100 µM

## CN(c1ccccc1)S(=O)(=O)c1ccccc1[N+](=O)[O-]
A549 NSCLC
  TGI: > 100 µM
HL-60(TB) leukemia
  TGI: > 100 µM
MDA-N
  TGI: > 100 µM
MOLT-4 leukemia
  TGI: > 100 µM
MDA-MB-435
  TGI: > 100 µM
NCI-H226 lung
  TGI: > 100 µM
T-47D breast
  TGI: > 100 µM
U251 CNS
  TGI: > 100 µM
HOP-62 NSCLC
  TGI: > 100 µM
HS 578T breast
  TGI: > 100 µM
LOX IMVI melanoma
  TGI: > 100 µM
RXF 393 renal
  TGI: > 100 µM
SW-620 colon
  TGI: > 100 µM
SF-295 CNS
  TGI: > 100 µM
MDA-MB-231 breast
  TGI: > 100 µM
IGROV1 ovarian
  TGI: > 100 µM
SR leukemia
  TGI: > 100 µM
NCI-H23 lung
  TGI: > 100 µM
OVCAR-8 ovarian
  TGI: > 100 µM

## CC(C)OCC(O)COc1ccc2ccc(=O)oc2c1 (stereo unspecified)
A549 NSCLC
  TGI: > 100 µM
HL-60(TB) leukemia
  TGI: > 100 µM
MDA-N
  TGI: > 100 µM
MOLT-4 leukemia
  TGI: > 100 µM
MDA-MB-435
  TGI: > 100 µM
T-47D breast
  TGI: > 100 µM
U251 CNS
  TGI: > 100 µM
HOP-62 NSCLC
  TGI: > 100 µM
HS 578T breast
  TGI: > 100 µM
LOX IMVI melanoma
  TGI: > 100 µM
SW-620 colon
  TGI: > 100 µM
SF-295 CNS
  TGI: > 100 µM
MDA-MB-231 breast
  TGI: > 100 µM
IGROV1 ovarian
  TGI: > 100 µM
NCI-H23 lung
  TGI: > 100 µM
OVCAR-8 ovarian
  TGI: > 100 µM

## O=C(C#CP(=O)(O)c1ccccc1)c1ccccc1
A549 NSCLC
  TGI: > 100 µM
MDA-N
  TGI: > 100 µM
MDA-MB-435
  TGI: > 100 µM
T-47D breast
  TGI: > 100 µM
U251 CNS
  TGI: > 100 µM
HOP-62 NSCLC
  TGI: > 100 µM
HS 578T breast
  TGI: > 100 µM
LOX IMVI melanoma
  TGI: > 100 µM
SW-620 colon
  TGI: > 100 µM
A498 renal
  TGI: > 100 µM
SF-295 CNS
  TGI: > 100 µM
IGROV1 ovarian
  TGI: > 100 µM
SR leukemia
  TGI: > 100 µM
NCI-H23 lung
  TGI: > 100 µM
OVCAR-8 ovarian
  TGI: > 100 µM

## CC(=O)OCC1OC(n2c(C)c(N=Nc3ccccc3)c(C)c(C#N)c2=S)C(OC(C)=O)C(OC(C)=O)C1OC(C)=O (stereo unspecified)
A549 NSCLC
  TGI: > 100 µM
HL-60(TB) leukemia
  TGI: > 100 µM
MDA-N
  TGI: > 100 µM
MOLT-4 leukemia
  TGI: > 100 µM
MDA-MB-435
  TGI: > 100 µM
T-47D breast
  TGI: > 100 µM
HOP-62 NSCLC
  TGI: 34.5 µM
HS 578T breast
  TGI: 44.8 µM
LOX IMVI melanoma
  TGI: > 100 µM
RXF 393 renal
  TGI: 32.4 µM
SW-620 colon
  TGI: > 100 µM
SF-295 CNS
  TGI: 44.1 µM
MDA-MB-231 breast
  TGI: 62.3 µM
IGROV1 ovarian
  TGI: > 100 µM
SR leukemia
  TGI: > 100 µM
NCI-H23 lung
  TGI: > 100 µM

## COC(=O)CCC(NC(=O)C(C)NC(=O)COC1C(O)C(OC(=O)CCNc2c3ccccc3nc3cccc([N+](=O)[O-])c23)OC(OCc2ccccc2)C1NC(C)=O)C(N)=O (stereo unspecified)
A549 NSCLC
  TGI: > 10 µM
MDA-N
  TGI: 6.04 µM
MOLT-4 leukemia
  TGI: > 10 µM
MDA-MB-435
  TGI: > 10 µM
NCI-H226 lung
  TGI: > 10 µM
T-47D breast
  TGI: > 10 µM
U251 CNS
  TGI: > 10 µM
HOP-62 NSCLC
  TGI: > 10 µM
HS 578T breast
  TGI: > 10 µM
LOX IMVI melanoma
  TGI: > 10 µM
RXF 393 renal
  TGI: 8.28 µM
SW-620 colon
  TGI: 4.44 µM
A498 renal
  TGI: > 10 µM
SF-295 CNS
  TGI: > 10 µM
MDA-MB-231 breast
  TGI: > 10 µM
IGROV1 ovarian
  TGI: > 10 µM
NCI-H23 lung
  TGI: > 10 µM
OVCAR-8 ovarian
  TGI: > 10 µM

## COC1=NC(NC2OCC(O)C(O)C2O)=C(NC(C)=O)CN1C (stereo unspecified)
A549 NSCLC
  TGI: > 100 µM
HL-60(TB) leukemia
  TGI: > 100 µM
MDA-N
  TGI: > 100 µM
MOLT-4 leukemia
  TGI: > 100 µM
MDA-MB-435
  TGI: > 100 µM
NCI-H226 lung
  TGI: > 100 µM
T-47D breast
  TGI: > 100 µM
HS 578T breast
  TGI: > 100 µM
LOX IMVI melanoma
  TGI: > 100 µM
RXF 393 renal
  TGI: > 100 µM
SW-620 colon
  TGI: > 100 µM
A498 renal
  TGI: > 100 µM
SF-295 CNS
  TGI: > 100 µM
MDA-MB-231 breast
  TGI: > 100 µM
NCI-H23 lung
  TGI: > 100 µM
OVCAR-8 ovarian
  TGI: > 100 µM

## COC(=O)c1ccc(N=NN(C)COc2ccc(C#N)cc2)cc1
A549 NSCLC
  TGI: > 100 µM
HL-60(TB) leukemia
  TGI: 50.4 µM
MDA-N
  TGI: > 100 µM
MOLT-4 leukemia
  TGI: > 100 µM
MDA-MB-435
  TGI: > 100 µM
NCI-H226 lung
  TGI: > 100 µM
T-47D breast
  TGI: > 100 µM
U251 CNS
  TGI: > 100 µM
HOP-62 NSCLC
  TGI: > 100 µM
HS 578T breast
  TGI: > 100 µM
LOX IMVI melanoma
  TGI: > 100 µM
RXF 393 renal
  TGI: > 100 µM
SW-620 colon
  TGI: > 100 µM
A498 renal
  TGI: > 100 µM
SF-295 CNS
  TGI: > 100 µM
MDA-MB-231 breast
  TGI: > 100 µM
IGROV1 ovarian
  TGI: > 100 µM
NCI-H23 lung
  TGI: > 100 µM
OVCAR-8 ovarian
  TGI: > 100 µM
